Test: Particle size result of micronised salbutamol sulphate
Format: physicochemical

Particle size result: MMD (Mass Mean Diameter): =2.53 μm. | Particle size result: fraction of particles >1 μm: 90.17% | Particle size result: size below which 90% of particles lie: <5.48 μm
Substance: Salbutamol Sulphate

— patent US20030188679A1, “Powdered mannitol and mannitol-containing compositions” (priority 2000, published 2003)
